Read-outs that look alike come from different tables or passages of the source.
Columns and labels:
BET active surface area = assay type: physicochemical
Text: BET theory explains the physical adsorption of gas molecules onto a solid surface. The theory serves as the basis for the measurement of the specific surface area of a material. This theory allows the calculation of surface areas of materials in a very accurate manner and is thus capable of distinguishing differences between separate preparations of what would otherwise appear to be the same material. For example, activated carbon is a form of carbon that has been processed to make it extremely porous and thus to have a very large surface area. Activated carbon has been experimentally determined, using calculations derived from BET theory, to have a surface area of around 3000 m^2 g^−1.

[1] = system: patients with end-stage renal disease (ESRD) on dialysis; assay: Three-period trial of ferric citrate as phosphate binder: 52-week randomized, open-label, active control Safety Assessment Period; assay type: in vivo, human
Procedure: This trial was a three-period, multicenter, safety and efficacy clinical trial.
Patients were followed on their randomized assignment for safety assessments over 52 weeks.
Calcium acetate 667 mg capsules and sevelamer carbonate 800 mg tablets were used and were supplied by Keryx Biopharmaceuticals, Inc. (Keryx) for the duration of the trial.
Serum phosphorus and calcium were checked at Visit 5 (Week 1), and every two weeks during the first 12 weeks after Visit 4 (Randomization Visit), and monthly for the rest of the Safety Assessment Period. During the Efficacy Assessment Period, serum phosphorus and calcium were drawn weekly. These values guided study drug administration. While on study drug, the use of other phosphate binders was not permitted. […] The titration of calcium acetate and sevelamer carbonate throughout the 52-week Safety Assessment Period were according to the current package inserts for these agents and/or at the discretion of the site PI.
Patients took study drug orally with or within one hour of meals or snacks. […] The PI or designee at each site dispensed the study drug to the patient and instructed the patient on how to administer it. It was recognized that some patients required a different distribution in pills in a given day due to snacks or missed meals.
Serum phosphorus and calcium were performed at Screening (Visit 0); weekly during the Washout Period after Visit 1 (Week −2); at Visit 4 (Randomization Visit); at Visits 5 (Week 1), 6 (Week 2), 7 (Week 4), 8 (Week 6), 9 (Week 8), 10 (Week 10), 11 (Week 12), 12 (Week 16), 13 (Week 20), 14 (Week 24), 15 (Week 28), 16 (Week 32), 17 (Week 36), 18 (Week 40), 19 (Week 44), 20 (Week 48), and 21 (Week 52) of the 52-week Safety Assessment Period; and at Visits 22 (Week 53), 23 (Week 54), 24 (Week 55) and 25 (Week 56) of the Efficacy Assessment Period. […]
The efficacy analyses were based on Full Analysis (FA) population that consisted of all patients who took at least one dose of study medication and provided baseline and at least one post-baseline efficacy assessment. The safety analyses were based on safety population that was consistent of all patients who took at least one dose of study medication.
There were two unique and distinct baseline assessments. The baseline for the Safety Assessment Period was the Randomization Visit (Visit 4) and was defined as “Week-0-baseline.” The baseline for the Efficacy Assessment Period was the last visit of the Safety Assessment Period (Visit 21. Week 52) and was defined as “study-baseline.”

[2] = Week 12, ANCOVA, Day-0 baseline covariate

ferric citrate [Batch No. 35102]
BET Active Surface Area (BET active surface area): 30.6 m^2/g

ferric citrate [Batch No. 35103]
BET Active Surface Area (BET active surface area): 29.1 m^2/g

ferric citrate [Batch No. 35105]
BET Active Surface Area (BET active surface area): 31.5 m^2/g

ferric citrate [Batch No. 35106]
BET Active Surface Area (BET active surface area): 28.5 m^2/g

ferric citrate [RFS-12-1]
BET Active Surface Area (BET active surface area): 0.61 m^2/g | BET Active Surface Area (BET active surface area; Table 1, unit not given): 0.61

ferric citrate [STM-134-1]
BET Active Surface Area (BET active surface area; Table 1, unit not given): 16.17

ferric citrate [STM-182-1]
BET Active Surface Area (BET active surface area; Table 1, unit not given): 19.85

sevelamer carbonate
Calcium, Mean (SD) ([1]; Baseline): 9.056 (0.7291) MG/DL | Calcium, Median ([1]; Baseline): 9.150 mg/dL | Product Of Calcium And Phosphorus, Mean (SD) ([1]; Baseline): 68.0872 (16.29) | Product Of Calcium And Phosphorus, Median ([1]; Baseline): 66.2700 | Phosphorus, Mean (SD) ([1]; Baseline (Table 12)): 7.51 (1.633) MG/DL | Phosphorus, Median ([1]; Baseline (Table 12)): 7.40 mg/dL | Calcium, Change from Baseline, Mean (SD) ([1]; Week 12): 0.175 (0.7509) MG/DL | Calcium, Change from Baseline, Median ([1]; Week 12): 0.100 mg/dL | Calcium, Mean (SD) ([1]; Week 12): 9.231 (0.7210) MG/DL | Calcium, Median ([1]; Week 12): 9.400 mg/dL | Product Of Calcium And Phosphorus, Change from Baseline, Mean (SD) ([1]; Week 12): −20.0621 (19.17) | Product Of Calcium And Phosphorus, Change from Baseline, Median ([1]; Week 12): −19.8500 | Product Of Calcium And Phosphorus, Mean (SD) ([1]; Week 12): 48.0251 (14.37) | Product Of Calcium And Phosphorus, Median ([1]; Week 12): 46.2800 | Phosphorus, Change from Baseline, Mean (SD) ([1]; Week 12 (Table 12)): −2.28 (2.169) MG/DL | Phosphorus, Change from Baseline, Median ([1]; Week 12 (Table 12)): -2.45 mg/dL | Phosphorus, Mean (SD) ([1]; Week 12 (Table 12)): 5.23 (1.713) MG/DL | Phosphorus, Median ([1]; Week 12 (Table 12)): 5.00 mg/dL | Calcium, LS Mean (SE) [1, 2]: 9.15 (0.08) MG/DL | Product Of Calcium And Phosphorus, LS Mean (SE) [1, 2]: 47.52 (1.50) | Phosphorus, LS Mean (SE) ([1]; Week 12, ANCOVA, Day-0 baseline covariate (Table 12)): 5.22 (0.17) MG/DL

From patent US20150079168A1 (Keryx Biopharmaceuticals, Inc., priority 2012, published 2015)
